The target in assay [1] is T1, Prolyl endopeptidase FAP (Homo sapiens, UniProt Q12884).
T1 sequence (Q12884 whole entry): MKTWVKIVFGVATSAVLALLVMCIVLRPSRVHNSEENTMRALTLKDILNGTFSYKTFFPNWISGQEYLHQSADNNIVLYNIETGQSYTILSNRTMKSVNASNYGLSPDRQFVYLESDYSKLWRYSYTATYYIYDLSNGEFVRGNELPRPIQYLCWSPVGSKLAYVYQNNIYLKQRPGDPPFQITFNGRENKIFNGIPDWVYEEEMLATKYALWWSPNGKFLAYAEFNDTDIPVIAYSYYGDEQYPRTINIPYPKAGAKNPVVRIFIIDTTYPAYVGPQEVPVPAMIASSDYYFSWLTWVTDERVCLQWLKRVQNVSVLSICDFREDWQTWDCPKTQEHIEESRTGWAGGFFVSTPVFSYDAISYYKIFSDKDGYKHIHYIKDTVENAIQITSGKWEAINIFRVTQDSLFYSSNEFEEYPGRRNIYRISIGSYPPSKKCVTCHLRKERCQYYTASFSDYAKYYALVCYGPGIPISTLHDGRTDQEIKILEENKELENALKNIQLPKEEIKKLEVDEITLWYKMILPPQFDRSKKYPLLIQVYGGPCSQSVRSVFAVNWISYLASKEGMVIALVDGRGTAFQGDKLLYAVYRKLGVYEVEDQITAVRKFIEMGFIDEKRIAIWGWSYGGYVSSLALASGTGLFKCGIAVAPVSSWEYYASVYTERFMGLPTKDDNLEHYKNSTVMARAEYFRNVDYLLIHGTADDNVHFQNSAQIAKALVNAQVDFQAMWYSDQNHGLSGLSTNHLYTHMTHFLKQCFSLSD
The assay can be described thus: Inhibition Assay. On the procedure: (§1) Inhibition assay of FAP. The compounds were precisely weighed (range between […]) on a micro-scale (HuberLab, Sartorius QUINTIX35-1S) and dissolved in DMSO to prepare stock solutions at 1 mM. Stock solutions were further diluted with FAP activation buffer (50 mM Tris, 100 mM NaCl, 1 mM EDTA, pH=7.4) to a final DMSO concentration of 10% v/v. 10 μL of each inhibitor were serially diluted in a 384 well plate (grenier-bio one, PS, F-bottom, Black, non-binding) with 10 μL of 10% DMSO FAP buffer (1:1 dilution). FAP (human and murine) was diluted to the desired concentration with FAP activation buffer and added to the serial dilution of inhibitor (10 μL for each well). Each protein-inhibitor solution was incubated for 30 minutes at room temperature. Each measurement was performed with an enzyme concentration (FAP) lower than the expected IC50. A 60 μM solution of substrate (Z-Gly-Pro-AMC) in FAP activation buffer (<1% DMSO) was added to the plate (10 μL for each well). The reaction was incubated from 1 minute to 48 hours at room temperature (22° C.-25° C.). The emission was read at 465 nm (excitation wavelength 360 nm) for 40 μs by Tecan Spark (s.n. 1808004082). […]

Assay [2] deals with T2, Prolyl endopeptidase FAP (Mus musculus, UniProt P97321).
T2 sequence (P97321 whole entry): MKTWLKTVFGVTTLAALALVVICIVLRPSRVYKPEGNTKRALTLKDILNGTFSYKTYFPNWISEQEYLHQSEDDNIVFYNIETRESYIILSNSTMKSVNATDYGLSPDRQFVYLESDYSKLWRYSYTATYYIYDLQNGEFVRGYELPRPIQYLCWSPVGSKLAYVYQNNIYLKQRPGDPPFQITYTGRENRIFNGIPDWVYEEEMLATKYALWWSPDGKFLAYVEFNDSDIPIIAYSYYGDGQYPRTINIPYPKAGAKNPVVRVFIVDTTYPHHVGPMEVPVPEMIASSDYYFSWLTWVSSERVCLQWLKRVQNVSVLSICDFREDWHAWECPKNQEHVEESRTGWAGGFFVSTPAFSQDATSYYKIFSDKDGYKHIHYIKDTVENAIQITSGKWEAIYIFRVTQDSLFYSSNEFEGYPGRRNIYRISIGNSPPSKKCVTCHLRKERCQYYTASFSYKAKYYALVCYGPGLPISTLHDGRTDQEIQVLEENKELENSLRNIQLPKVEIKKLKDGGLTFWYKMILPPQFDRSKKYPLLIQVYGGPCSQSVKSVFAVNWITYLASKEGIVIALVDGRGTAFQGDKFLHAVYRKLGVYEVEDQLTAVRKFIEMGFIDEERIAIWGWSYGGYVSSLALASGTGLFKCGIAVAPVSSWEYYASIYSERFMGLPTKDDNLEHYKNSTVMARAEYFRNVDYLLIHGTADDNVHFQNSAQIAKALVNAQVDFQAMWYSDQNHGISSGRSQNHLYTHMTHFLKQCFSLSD
The assay can be described thus: Inhibition Assay. On the procedure:
as §1

Molecules are shown by their SMILES.

For orientation: IC50 means the concentration needed to halve the response being measured. A high value points to a need for much substance.

Consider `C#CC[C@H](NC(=O)[C@H](CCCNC(=N)N(C)C)NC(=O)c1coc(CNC(=O)CCC(=O)N2CC(F)(F)C[C@H]2C#N)c1)C(=O)N[C@@H](CCCCN)C(=O)O` [US20250177582, Compound 2], for which the results for the IC50 on Prolyl endopeptidase FAP [1] and on Prolyl endopeptidase FAP [2] were 44.1 nM and 29.2 nM, respectively.

For the origin of these results see BindingDB's records for patent US20250177582 (Philochem, 2025).
